{"source": "patent US20100143319A1", "about": "“KIWIFRUIT COMPOSITIONS” (priority 2007, published 2010)", "key": {"[1]": {"test_system": "mouse small intestine motility", "experiment": "First animal trial: small intestine motility experiment (Peristaltic Inhibition Model, diphenoxylate 0.25 g/l)", "format": "in vivo, Kunmin male mice", "conditions": "model control: 0.25 g/l diphenoxylate oral, 20 ml/kg BW; mean ± SD, n=10; P<0.01 vs negative control", "source_text": "Experimental animals: 100 Kunmin male mice (class two) were purchased from the animal center in the Academy of Military Medical Sciences of the Chinese PLA, with a weight of 16 to 18 g. • Group 1: 50 mice were randomly divided into 5 experimental groups each of 10 mice (negative control group, model control group and three dosage groups), to test small intestine motility. • Group 2: 50 mice were randomly divided into 5 experimental groups each of 10 mice (negative control group, model control group and three dosage groups), to measure the following parameters: time of first melena defecation, the number of faeces pellets, the weight of faeces, and to observe the shape of the faeces. […]\nFor this experiment, the dosage was set at 10 times that of the recommended dosage, namely 0.29 g/kgBW per day (4 capsules). […] Oral intubation was used to administer the dose to the mice, at a measured quantity of 20 ml/kgBW.\n8 days after oral administration of the different treatments, each group was fasted for 16 hours (with free access to drinking water). Mice in the Peristaltic Inhibition Model control group and the three dose groups were orally administered 0.25 g/l, diphenoxylate at a measured quantity of 20 ml/kg BW. […] The 0 g/kg BW group (negative control group and model control group) were orally administered blank inks with a measured quantity of 20 ml/kg BW. […]"}, "mouse Constipation Model": {"test_system": "mouse Constipation Model", "experiment": "First animal trial: constipation experiment (Constipation Model, diphenoxylate 0.50 g/l)", "format": "in vivo, Kunmin male mice", "conditions": "mean ± SD, n=10", "source_text": "Experimental animals: 100 Kunmin male mice (class two) were purchased from the animal center in the Academy of Military Medical Sciences of the Chinese PLA, with a weight of 16 to 18 g. • Group 1: 50 mice were randomly divided into 5 experimental groups each of 10 mice (negative control group, model control group and three dosage groups), to test small intestine motility. • Group 2: 50 mice were randomly divided into 5 experimental groups each of 10 mice (negative control group, model control group and three dosage groups), to measure the following parameters: time of first melena defecation, the number of faeces pellets, the weight of faeces, and to observe the shape of the faeces. Number of qualitative qualification is SCXK M 2002-001.\nFor this experiment, the dosage was set at 10 times that of the recommended dosage, namely 0.29 g/kgBW per day (4 capsules). The experiment was designed with a low dosage group (0.145 g/kgBW) (2 capsules) and a high dosage group (0.87 g/kgBW) (12 capsules). The kiwifruit extract was dissolved by gentle agitation into sterile distilled water. For both the negative control group (0 g/kgBW) and the model control group sterile distilled water was used as the treatment. Oral intubation was used to administer the dose to the mice, at a measured quantity of 20 ml/kgBW.\nParameters measured in the animal trial were time of defecation, the number of faeces pellets, the weight of the faeces, and visual observation of the shape of the faeces\nThe different doses of kiwifruit composition were orally administered to the mice, and the shape of the faeces during the eight day feeding trial was observed. […] The mice in the Peristaltic Inhibition Model control group and the three dose groups were orally administered 0.50 g/l of diphenoxylate in the calculated volume of 20 ml/kg BW, whilst the negative group were given an equivalent volume of water. […] The time of the first melena defecation was recorded, along with the number of faecal pellets within 5 hours and the weight of the faeces, as well as the shape of the faeces."}, "[2]": {"conditions": "model control: 0.50 g/l diphenoxylate oral, 20 ml/kg BW, P 0.000 vs negative control"}}}
{"compound": "CCOC(=O)C1(c2ccccc2)CCN(CCC(C#N)(c2ccccc2)c2ccccc2)CC1", "note": "[diphenoxylate, Diphenoxylate]", "values": [{"measurement": "Ink Progression (%)", "setting": "[1]", "result": "33.8 ± 7.0", "unit": "%"}, {"measurement": "Number of faeces pellets defecated within 5 hours (grain)", "setting": "mouse Constipation Model; [2]", "result": "25 ± 16", "unit": "grain"}, {"measurement": "Weight of faeces defecated within 5 hours", "setting": "mouse Constipation Model; [2]", "result": "0.47 ± 0.26", "unit": "grain"}, {"measurement": "Time of first melena defecation", "setting": "mouse Constipation Model; model control: diphenoxylate oral, 20 ml/kg BW (0.50 g/l, 0.25 g/L elsewhere in the source), P<0.01 vs negative control", "result": "231.7 ± 81.7", "unit": "min"}]}
